Data: ChEMBL document CHEMBL3526052 (Drug Metab Dispos, 2013)

Columns and labels:
Format in all cases: ADME
[1] = biological target: T1, Equilibrative nucleoside transporter 1 (Homo sapiens, UniProt Q99808); experiment: Binding affinity to recombinant human ENT1 expressed in Saccharomyces cerevisiae assessed as inhibition of [3H]-uridine transport after 15 mins by scintillation counting analysis
T1 sequence (Q99808 whole entry): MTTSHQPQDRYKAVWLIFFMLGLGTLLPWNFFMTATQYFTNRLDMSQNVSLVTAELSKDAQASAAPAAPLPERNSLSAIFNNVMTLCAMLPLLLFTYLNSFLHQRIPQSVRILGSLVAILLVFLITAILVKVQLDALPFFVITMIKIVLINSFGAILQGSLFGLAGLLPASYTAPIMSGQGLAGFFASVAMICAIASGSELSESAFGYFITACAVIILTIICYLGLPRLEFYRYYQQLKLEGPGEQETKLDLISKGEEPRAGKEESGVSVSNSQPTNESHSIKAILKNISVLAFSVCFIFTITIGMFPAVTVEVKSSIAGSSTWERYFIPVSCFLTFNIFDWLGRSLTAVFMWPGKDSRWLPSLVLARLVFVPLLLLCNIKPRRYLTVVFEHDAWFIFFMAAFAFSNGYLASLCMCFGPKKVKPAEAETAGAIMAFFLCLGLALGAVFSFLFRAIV

[2] = biological target: T2, Equilibrative nucleoside transporter 2 (Homo sapiens, UniProt Q14542); experiment: Binding affinity to recombinant human ENT2 expressed in Saccharomyces cerevisiae assessed as inhibition of [3H]-uridine transport after 15 mins by scintillation counting analysis; details: for Ki: read-out: Ki(app)
T2 sequence (Q14542 whole entry): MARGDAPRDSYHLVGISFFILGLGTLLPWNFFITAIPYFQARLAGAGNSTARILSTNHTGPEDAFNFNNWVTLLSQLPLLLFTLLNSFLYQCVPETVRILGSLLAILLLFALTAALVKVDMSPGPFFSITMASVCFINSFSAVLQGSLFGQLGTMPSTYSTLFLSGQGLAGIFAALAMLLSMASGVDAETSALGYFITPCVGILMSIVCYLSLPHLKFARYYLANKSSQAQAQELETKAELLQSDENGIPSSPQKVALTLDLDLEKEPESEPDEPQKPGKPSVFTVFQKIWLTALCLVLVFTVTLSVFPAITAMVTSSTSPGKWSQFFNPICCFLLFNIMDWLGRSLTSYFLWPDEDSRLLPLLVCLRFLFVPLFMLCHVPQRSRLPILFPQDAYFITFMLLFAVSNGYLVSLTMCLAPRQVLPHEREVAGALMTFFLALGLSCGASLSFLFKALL

[3] = biological target: T3, Sodium/nucleoside cotransporter 1 (Homo sapiens, UniProt O00337); experiment: Binding affinity to recombinant human CNT1 expressed in Saccharomyces cerevisiae assessed as inhibition of [3H]-uridine transport after 15 mins by scintillation counting analysis; details: for Ki: read-out: Ki(app)
T3 sequence (O00337 whole entry): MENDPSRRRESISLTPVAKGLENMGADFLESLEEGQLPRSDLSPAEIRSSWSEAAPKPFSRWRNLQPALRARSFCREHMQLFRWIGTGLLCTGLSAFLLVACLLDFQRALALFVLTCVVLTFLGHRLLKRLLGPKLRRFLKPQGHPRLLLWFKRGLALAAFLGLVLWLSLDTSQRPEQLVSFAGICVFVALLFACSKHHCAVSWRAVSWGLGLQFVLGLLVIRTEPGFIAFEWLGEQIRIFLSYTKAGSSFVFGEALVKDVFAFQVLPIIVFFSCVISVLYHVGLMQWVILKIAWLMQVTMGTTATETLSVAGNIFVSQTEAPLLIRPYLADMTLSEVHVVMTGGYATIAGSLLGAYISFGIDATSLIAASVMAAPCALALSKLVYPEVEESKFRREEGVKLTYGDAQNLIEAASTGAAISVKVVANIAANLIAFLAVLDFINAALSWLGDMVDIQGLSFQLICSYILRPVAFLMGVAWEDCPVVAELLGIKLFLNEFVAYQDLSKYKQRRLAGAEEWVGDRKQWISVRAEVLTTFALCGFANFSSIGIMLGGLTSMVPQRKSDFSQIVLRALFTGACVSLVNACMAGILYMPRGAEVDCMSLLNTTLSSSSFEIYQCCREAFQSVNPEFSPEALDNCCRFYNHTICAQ

[4] = biological target: T4, Sodium/nucleoside cotransporter 2 (Homo sapiens, UniProt O43868); experiment: Binding affinity to recombinant human CNT2 expressed in Saccharomyces cerevisiae assessed as inhibition of [3H]-uridine transport after 15 mins by scintillation counting analysis; details: for Ki: read-out: Ki(app)
T4 sequence (O43868 whole entry): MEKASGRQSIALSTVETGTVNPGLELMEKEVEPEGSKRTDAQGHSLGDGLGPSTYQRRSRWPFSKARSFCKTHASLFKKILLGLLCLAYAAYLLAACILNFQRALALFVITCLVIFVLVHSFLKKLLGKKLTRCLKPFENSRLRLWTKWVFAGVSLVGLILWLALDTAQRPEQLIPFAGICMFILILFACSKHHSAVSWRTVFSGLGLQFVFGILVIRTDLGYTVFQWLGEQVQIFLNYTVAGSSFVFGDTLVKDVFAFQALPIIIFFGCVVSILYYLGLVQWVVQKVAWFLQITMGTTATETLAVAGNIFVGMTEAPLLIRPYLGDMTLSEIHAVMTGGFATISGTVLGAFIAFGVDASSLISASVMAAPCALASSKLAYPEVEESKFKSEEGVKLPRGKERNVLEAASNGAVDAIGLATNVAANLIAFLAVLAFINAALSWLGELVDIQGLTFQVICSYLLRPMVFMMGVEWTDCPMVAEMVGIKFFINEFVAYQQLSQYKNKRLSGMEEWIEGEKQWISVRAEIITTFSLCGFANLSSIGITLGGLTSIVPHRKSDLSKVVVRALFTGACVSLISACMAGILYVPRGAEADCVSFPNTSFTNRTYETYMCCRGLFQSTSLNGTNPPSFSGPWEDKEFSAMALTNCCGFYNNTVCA

[5] = biological target: T5, Solute carrier family 28 member 3 (Homo sapiens, UniProt Q9HAS3); experiment: Binding affinity to recombinant human CNT3 expressed in Saccharomyces cerevisiae assessed as inhibition of [3H]-uridine transport after 5 mins by scintillation counting analysis; details: for Ki: read-out: Ki(app)
T5 sequence (Q9HAS3 whole entry): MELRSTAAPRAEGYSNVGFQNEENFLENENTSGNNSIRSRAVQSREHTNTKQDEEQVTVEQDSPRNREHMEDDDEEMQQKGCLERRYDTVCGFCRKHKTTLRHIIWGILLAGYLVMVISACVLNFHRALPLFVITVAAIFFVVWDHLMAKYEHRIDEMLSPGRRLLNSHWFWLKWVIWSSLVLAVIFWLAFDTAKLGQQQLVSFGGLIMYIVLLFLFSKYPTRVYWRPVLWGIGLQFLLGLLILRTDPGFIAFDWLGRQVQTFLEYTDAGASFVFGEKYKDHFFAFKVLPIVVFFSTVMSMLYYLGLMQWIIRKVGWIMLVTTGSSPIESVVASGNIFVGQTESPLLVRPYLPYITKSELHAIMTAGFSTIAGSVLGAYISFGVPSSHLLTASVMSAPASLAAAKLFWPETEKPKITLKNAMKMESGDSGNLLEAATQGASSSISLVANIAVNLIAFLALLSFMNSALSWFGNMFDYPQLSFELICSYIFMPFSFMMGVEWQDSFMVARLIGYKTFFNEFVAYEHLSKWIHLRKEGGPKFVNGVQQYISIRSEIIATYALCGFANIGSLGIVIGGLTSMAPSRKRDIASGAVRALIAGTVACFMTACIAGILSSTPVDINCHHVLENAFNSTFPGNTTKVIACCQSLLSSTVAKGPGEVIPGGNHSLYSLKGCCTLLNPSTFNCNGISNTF

Row | IC50 [1] | Ki ([1]; read-out: Ki(app)) | IC50 [2] | Ki [2] | IC50 [3] | Ki [3] | IC50 [4] | Ki [4] | IC50 [5] | Ki [5] | Structure (SMILES)
1 | 52 µM | 51 µM | 234 µM | 242 µM | 5.8 µM | 5.2 µM | 32 µM | 31 µM | 5.4 µM | 3.4 µM | O=c1ccn([C@@H]2O[C@H](CO)[C@@H](O)[C@H]2O)c(=O)[nH]1 [URIDINE]
2 |  |  | 106 µM | 106 µM | 5.5 µM | 1.8 µM | 5.5 µM | 5.3 µM | 3.3 µM | 2.1 µM | Nc1ncnc2c1ncn2[C@@H]1O[C@H](CO)[C@@H](O)[C@H]1O [ADENOSINE]
